Source: the OPERA property sets (Mansouri et al. 2018)

Conditions: for log10 BCF / log10 biotransformation half-life (days): fish

CCCCCCCCCCCCCCCCCCCCCCCCCCCCCCC
boiling point: 458 °C
log10 biodegradation half-life (days): 2.44
log10 vapour pressure (mmHg): -10.9
melting point: 67.9 °C

COC(=O)CCCCC(=O)OC
log10 vapour pressure (mmHg): -1.22
melting point: 10.3 °C

CC(C)=CCC1C(=O)N(c2ccccc2)N(c2ccccc2)C1=O
melting point: 156 °C

CCOc1cccc(-c2ccccc2)c1
boiling point: 305 °C
melting point: 35 °C

CC(C)(Br)[N+](=O)[O-]
boiling point: 153 °C

ON=C1CCCC1
boiling point: 196 °C
melting point: 57.8 °C

C[Si]1(c2ccccc2)O[Si](C)(c2ccccc2)O[Si](C)(c2ccccc2)O1 (stereo not given)
melting point: 100 °C

O=C(O)c1cc(O)c2ccccc2n1
melting point: 282 °C

c1ccc([Se]c2ccccc2)cc1
boiling point: 302 °C
melting point: 2.5 °C

CCOC(=O)c1sc(N)nc1C(F)(F)F
melting point: 186 °C

Clc1cc(Cl)cc(-c2ccccc2Cl)c1
log10 Henry constant (atm·m³/mol): -3.7

CCS(=O)CCSP(=O)(OC)OC (stereo not given)
log10 Koc (L/kg): 1
log10 vapour pressure (mmHg): -4.55

CCCc1cccc2ccccc12
boiling point: 274 °C
melting point: -8.6 °C

CCOc1ccc(N=Nc2ccc(OCC)cc2)cc1
melting point: 162 °C

CC1(C)S[C@@H]2[C@H](NC(=O)C3(N)CCCCC3)C(=O)N2[C@H]1C(=O)O
melting point: 182 °C

CCCC(N)CCC
boiling point: 140 °C

Cn1cnc([N+](=O)[O-])c1Sc1ncnc2nc[nH]c12
melting point: 244 °C

CCCCCCCOC(C)=O
boiling point: 193 °C
melting point: -50.2 °C

ClC(C(Cl)(Cl)Cl)C(Cl)(Cl)Cl
boiling point: 249 °C
melting point: 11 °C

Clc1ccc(-c2cc(Cl)ccc2Cl)c(Cl)c1
log10 Henry constant (atm·m³/mol): -3.68
log10 Koa: 8.39
log10 vapour pressure (mmHg): -5.07

N#CCC(=O)NN
melting point: 114 °C

O=c1[nH]cnc2c1ncn2[C@H]1CC[C@@H](CO)O1
melting point: 162 °C

Ic1ccc2c(c1)Oc1ccccc1O2
log10 vapour pressure (mmHg): -4.5
melting point: 95 °C

O=[N+]([O-])c1cc(S(=O)(=O)Nc2ccccc2)ccc1Nc1ccccc1
melting point: 156 °C
ready biodegradability: not readily biodegradable
log10 BCF: 1.61
log10 biotransformation half-life (days): -0.66

FC(F)COC(F)F
boiling point: 55.3 °C
log10 vapour pressure (mmHg): 2.36

O=C(O)C=Cc1ccccc1F
melting point: 179 °C

Cc1ccc([N+](=O)[O-])c2ccccc12
melting point: 71.5 °C

CN1CCN(C(c2ccccc2)c2ccccc2)CC1
melting point: 106 °C

Cc1ccccc1CCO
boiling point: 244 °C
melting point: 2 °C

CC(C)(C#N)/N=N/C(C)(C)C#N
melting point: 102 °C

C=C(C)C#N
boiling point: 90.3 °C
log10 vapour pressure (mmHg): 1.85
melting point: -35.8 °C
ready biodegradability: readily biodegradable

O=S(=O)(F)Cc1ccccc1
melting point: 93 °C

CC(C)C12C=CC(C)(CC1)OO2 (stereo not given)
melting point: 3.3 °C

CC(CC=O)CCCC(C)(C)O (stereo not given)
boiling point: 241 °C

CC(=O)OCCc1ccccc1
boiling point: 233 °C
log10 Koc (L/kg): 1.89
log10 vapour pressure (mmHg): -1.5
melting point: -31.1 °C

Oc1ccc(O)c(Cc2ccccc2)c1
melting point: 106 °C

Cc1c2ccccc2c(C)c2c1ccc1ccccc12
log10 Koc (L/kg): 5.37
melting point: 122 °C

Cc1ccc(OC(=O)c2ccccc2)cc1
boiling point: 316 °C
melting point: 71.5 °C

O=C(O)c1ccccc1O
log10 Koa: 7.44
log10 vapour pressure (mmHg): -4.09
melting point: 158 °C
ready biodegradability: readily biodegradable

CCN(CC)C(=O)/C(Cl)=C(/C)OP(=O)(OC)OC
log10 vapour pressure (mmHg): -4.78
melting point: -45 °C

Cc1cc(Cl)ccc1N=CN(C)C
log10 Koc (L/kg): 2.91
log10 vapour pressure (mmHg): -3.03
melting point: 35 °C

C#CCOC
boiling point: 63 °C

Br.CCNCC
melting point: 219 °C

O=C1OC(=O)c2cc(Cl)c(Cl)cc21
boiling point: 313 °C
melting point: 188 °C

CC(C)(C)C(=O)c1ccccc1
boiling point: 220 °C

c1cc[n+]2c(c1)-c1cccc[n+]1CC2
log10 Koc (L/kg): 2.7
log10 vapour pressure (mmHg): -8
log10 BCF: 0.76

CNC(=O)Oc1cc(C)c(SC)c(C)c1
log10 Henry constant (atm·m³/mol): -8.93
log10 Koc (L/kg): 2.32
log10 vapour pressure (mmHg): -6.57
melting point: 120 °C

CCCCCCCCl
boiling point: 159 °C
log10 vapour pressure (mmHg): 0.451
melting point: -69.5 °C

CCOC(=O)C(C)[N+](=O)[O-] (stereo not given)
boiling point: 190 °C

COc1ccc(C(=O)O)c(OC)c1OC
melting point: 100 °C

O=C(ON=C1C=CC(=NOC(=O)c2ccccc2)C=C1)c1ccccc1
ready biodegradability: not readily biodegradable

COc1ccc(S)cc1
boiling point: 228 °C

CC(C)(C)C(=O)C(Oc1ccc(Cl)cc1)n1cncn1 (stereo not given)
log10 Koc (L/kg): 2.71
log10 vapour pressure (mmHg): -7.82
melting point: 82 °C

CC(=O)OC1CCCCC1C(C)(C)C (stereo not given)
melting point: 35 °C

CNCC(O)c1ccc(O)cc1 (stereo not given)
melting point: 184 °C

CCCCCCCCCC=CC(=O)O
melting point: 17.1 °C

CCC1CCc2ccccc21 (stereo not given)
boiling point: 212 °C

C=C(C)C(=O)O
boiling point: 163 °C
log10 Henry constant (atm·m³/mol): -6.41
log10 vapour pressure (mmHg): -0.0044
melting point: 16 °C
ready biodegradability: readily biodegradable

CCN(CC)C(=O)[C@@H]1C=C2c3cccc4[nH]c(Br)c(c34)C[C@H]2N(C)C1
melting point: 124 °C

CCCCC(C)(O)CCC (stereo not given)
boiling point: 180 °C

CC(C)(C)S
boiling point: 64 °C
log10 vapour pressure (mmHg): 2.26
melting point: -0.5 °C

Clc1ccc2ccccc2n1
boiling point: 266 °C
melting point: 38 °C

N=CNO
melting point: 114 °C

CC(C)(c1cc(Br)c(OCC(Br)CBr)c(Br)c1)c1cc(Br)c(OCC(Br)CBr)c(Br)c1 (stereo not given)
ready biodegradability: not readily biodegradable

Cc1cc(O)c(C)c(C)c1C
boiling point: 266 °C
melting point: 85.3 °C

C#CC(C)(C)NC(=O)c1ccc(Br)cc1
log10 Koc (L/kg): 2.01

COc1ccc2c(c1OC)CN(C)CCc1cc3c(cc1C(=O)C2)OCO3
melting point: 160 °C

O=C(O)c1c(Cl)c(Cl)c(Cl)c(Cl)c1C(O)=Nc1cccc(Cl)c1Cl
melting point: 198 °C

NNC(=O)c1ccc(N)cc1
melting point: 226 °C

CC(C)(C)C(=O)Cl
boiling point: 107 °C

COC(=O)C(C)N(C(=O)c1ccco1)c1c(C)cccc1C (stereo not given)
log10 vapour pressure (mmHg): -6.28
melting point: 70 °C

CN(C)C=Nc1ccccc1
boiling point: 127 °C

Fc1cccc(F)c1
boiling point: 82.6 °C
log10 vapour pressure (mmHg): 1.92
melting point: -69 °C

O=C(O)c1ccc([N+](=O)[O-])cc1
melting point: 242 °C
ready biodegradability: readily biodegradable

ClC(Cl)[Si](Cl)(Cl)Cl
boiling point: 145 °C

S=C(Nc1ccccc1)c1ccccc1
melting point: 102 °C

Clc1cc2oc3c(Cl)c(Cl)c(Cl)cc3c2cc1Cl
log10 Koa: 10.4
log10 vapour pressure (mmHg): -8.58
melting point: 196 °C
log10 BCF: 4.13
log10 biotransformation half-life (days): 1.36

C=C[C@@]1(C)C=C2CC[C@@H]3[C@](C)(CCC[C@@]3(C)C(=O)O)[C@H]2CC1
melting point: 218 °C
log10 BCF: 1.92

CC1(C)[C@@H]2CC[C@]1(C)[C@H](O)C2
log10 vapour pressure (mmHg): -1.3

CCCCCCCCCCCCS
boiling point: 274 °C
log10 vapour pressure (mmHg): -2.07
melting point: -8 °C

CCCCC(CC)COC(=O)CCCCC(=O)OCC(CC)CCCC (stereo not given)
boiling point: 417 °C
log10 Henry constant (atm·m³/mol): -6.36
log10 Koc (L/kg): 4.19
log10 vapour pressure (mmHg): -6.07
melting point: -67.8 °C
ready biodegradability: readily biodegradable

c1ccc2sc(SSc3nc4ccccc4s3)nc2c1
melting point: 180 °C
ready biodegradability: not readily biodegradable
log10 BCF: 1.42
log10 biotransformation half-life (days): -0.91

CCCCC(CC)COP(=O)(Oc1ccccc1)Oc1ccccc1 (stereo not given)
boiling point: 375 °C
log10 Henry constant (atm·m³/mol): -4.27
log10 vapour pressure (mmHg): -4.3
melting point: -54 °C
ready biodegradability: not readily biodegradable
log10 BCF: 2.49
log10 biotransformation half-life (days): -0.15

Nc1ccc(S(=O)(=O)[O][Na])c2ccccc12
log10 BCF: 0.78

CCOCCCO
melting point: 160 °C

CCC(C)=NO[Si](C)(ON=C(C)CC)ON=C(C)CC
ready biodegradability: not readily biodegradable

COCCCN
boiling point: 118 °C
ready biodegradability: not readily biodegradable

C=CC[N+](=O)[O-]
boiling point: 128 °C

O=[N+]([O-])c1cccc(CBr)c1
melting point: 59.3 °C

O=[N+]([O-])c1cc(Br)ccc1O
melting point: 92 °C

CC(=O)Oc1ccc(Br)cc1C(=O)O
melting point: 60 °C

CCOC(=O)c1cccs1
boiling point: 218 °C

CCC(Cc1c(I)cc(I)c(O)c1I)C(=O)O (stereo not given)
melting point: 147 °C

Clc1cccc(Cl)n1
boiling point: 211 °C
melting point: 88 °C
ready biodegradability: not readily biodegradable

N#CC(CCc1ccc(Cl)cc1)(Cn1cncn1)c1ccccc1 (stereo not given)
log10 vapour pressure (mmHg): -7.43
melting point: 125 °C

C1CCC(C2CCCCC2)CC1
boiling point: 238 °C
log10 vapour pressure (mmHg): -0.967
melting point: 4 °C
log10 biotransformation half-life (days): 0.38

BrCCCOc1ccccc1
melting point: 10.7 °C

C1=CCCCCC1
boiling point: 115 °C
melting point: -56 °C

FC(F)(F)C(Cl)=CCl
boiling point: 53.7 °C
melting point: -109 °C

CCCCC(C)(C)C(C)C
boiling point: 160 °C

CCOc1cccc(C=O)c1O
boiling point: 264 °C
melting point: 67 °C

O=C(OCC(=O)N1CCC[C@H]1C(=O)O)c1ccccc1
melting point: 116 °C

CCCCCCCCI
boiling point: 226 °C
log10 vapour pressure (mmHg): -0.602
melting point: -45.7 °C

CCCCCCCC/C=C\CCCCCCCCCCCCC
boiling point: 378 °C
log10 vapour pressure (mmHg): -4.45

c1ccc2[nH]c(-c3cscn3)nc2c1
log10 Koc (L/kg): 3.24
log10 vapour pressure (mmHg): -8.4
melting point: 300 °C

Cc1ccc(C)c(C)c1C
boiling point: 205 °C
log10 biodegradation half-life (days): 0.602
log10 vapour pressure (mmHg): -0.443
melting point: -6.2 °C
log10 biotransformation half-life (days): 1.17

COc1ccc2c3c1O[C@H]1[C@@H](O)C=C[C@H]4[C@@H](C2)[N@@+](C)([O-])CC[C@@]341
melting point: 232 °C

CC[C@H](Br)C(=O)O
melting point: -4 °C

CCCC(C)(C)CCC
boiling point: 135 °C

NCCO.O=C(Nc1ccc([N+](=O)[O-])cc1Cl)c1cc(Cl)ccc1O
melting point: 216 °C

C=CCCC(=O)O
boiling point: 188 °C
melting point: -22.5 °C

CC=C(Cl)CCl
boiling point: 130 °C

CC(=O)OC(C)C
boiling point: 88.6 °C
log10 Henry constant (atm·m³/mol): -3.56
log10 Koa: 2.93
log10 vapour pressure (mmHg): 1.78
melting point: -73.4 °C
ready biodegradability: readily biodegradable

N#CSCSc1nc2ccccc2s1
ready biodegradability: not readily biodegradable
log10 BCF: 2.32
log10 biotransformation half-life (days): -1.01

CCCCCC(=O)CC(C)=O
melting point: -18 °C

Cc1ccc(O)cn1
melting point: 169 °C

CCCCCCCCCCCCCCBr
boiling point: 307 °C
log10 vapour pressure (mmHg): -3.35
melting point: 5.6 °C

C=COC(=O)CCl
ready biodegradability: readily biodegradable

NS(=O)(=O)c1cccc([N+](=O)[O-])c1
melting point: 167 °C

Cc1cc2c(cc1S(N)(=O)=O)S(=O)(=O)CCC2
melting point: 236 °C

CCOc1ccc(C=O)cc1
boiling point: 249 °C
melting point: 13.5 °C

CCCCCCCCCCOC(=O)Cl
boiling point: 220 °C
log10 vapour pressure (mmHg): -1.59

CC(Cl)(CCl)CCl
boiling point: 162 °C
